Experimental data as given in patent publication US11524938B2, “Aromatic sulfonamide derivatives” (Bayer Pharma Aktiengesellschaft, priority 2016, dated 2022).
pIC50: −log10 of the molar value.

Biological target: T1, human P2X4 (Homo sapiens, UniProt Q99571)
T1 sequence (Q99571 1-388): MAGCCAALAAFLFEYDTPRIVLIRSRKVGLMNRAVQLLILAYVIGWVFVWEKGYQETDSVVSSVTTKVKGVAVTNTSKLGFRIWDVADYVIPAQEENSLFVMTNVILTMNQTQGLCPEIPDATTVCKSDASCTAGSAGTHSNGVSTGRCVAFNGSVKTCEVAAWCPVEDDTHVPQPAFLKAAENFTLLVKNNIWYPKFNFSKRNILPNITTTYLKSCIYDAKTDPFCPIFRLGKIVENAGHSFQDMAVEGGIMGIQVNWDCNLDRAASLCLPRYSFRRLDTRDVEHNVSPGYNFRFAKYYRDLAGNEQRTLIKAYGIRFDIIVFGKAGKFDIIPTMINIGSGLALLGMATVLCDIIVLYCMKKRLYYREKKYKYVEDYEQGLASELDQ
Assay: Human P2X4 HEK Cell FLIPR Assay
Format: cell-based
Settings: agonist Bz-ATP at EC80; for Emax: HEK293, HEK293 cells, percentage of maximal inhibition, read-out: Human P2X4 HEK Cells (FLIPR Assay) avg Efficacy [%]; for pIC50: HEK293 cells, individual values listed where some fall outside detection range
Summary of the method: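 HEK293 cells stably expressing human P2X4, Fluo8-AM loaded 30 min at 37° C, then compound 30 min at room temperature (0.5% DMSO, pH 7.4 buffer with 1.8 mM CaCl2). Bz-ATP at its daily-determined EC80 added; calcium fluorescence read over 120 sec; IC50 from peak RFU normalized to agonist control, triplicates.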

Q: `Cn1nc(C(F)(F)F)cc1-c1ccc(NC(=O)Cc2ccccc2F)cc1S(N)(=O)=O` [Example 368, 2-(2-Fluorophenyl)-N-{4-[1-methyl-3-(trifluoromethyl)-1H-pyrazol-5-yl]-3-sulfamoylphenyl}acetamide] was tested. Which Emax did it give?
A: 100%

Q: What about the pIC50 of the same compound?
A: 6.88

Q: Which Emax does the source give for `NS(=O)(=O)c1cc(NC(=O)Cc2ccccc2Cl)ccc1-c1cncc(OC(F)(F)F)c1` [Example 307, 2-(2-Chlorophenyl)-N-{3-sulfamoyl-4-[5-(trifluoromethoxy)pyridin-3-yl]phenyl}acetamide] here?
A: 62%

Q: What about the pIC50 of the same compound?
A: 6.94

Q: With `NS(=O)(=O)c1cc(NC(=O)Cc2ccccc2Cl)ccc1-n1cc(C(F)(F)F)nn1` [Example 242, 2-(2-Chlorophenyl)-N-{3-sulfamoyl-4-[4-(trifluoromethyl)-1H-1,2,3-triazol-1-yl]-phenyl}acetamide] as the compound, how does the Emax read?
A: 86%

Q: What about the pIC50 of the same compound?
A: 7.43

Q: How did the Emax turn out when `NS(=O)(=O)c1cc(NC(=O)Cc2ccccc2Cl)ccc1-n1cc(C(=O)N2CCC2)cn1` [Example 441, N-{4-[4-(Azetidin-1-ylcarbonyl)-1H-pyrazol-1-yl]-3-sulfamoylphenyl}-2-(2-chlorophenyl)acetamide] was run?
A: 91%

Q: And the pIC50?
A: 6.73

Q: For `N#Cc1cnn(-c2ccc(NC(=O)Cc3cccc(F)c3)cc2S(N)(=O)=O)c1` [Example 185, N-[4-(4-Cyano-1H-pyrazol-1-yl)-3-sulfamoylphenyl]-2-(3-fluorophenyl)acetamide], which Emax is on record?
A: 71%

Q: What about the pIC50 of the same compound?
A: 6.61

Q: Which Emax does the source give for `NS(=O)(=O)c1cc(NC(=O)Cc2ccccc2F)ccc1-n1ncc(C(F)(F)F)n1` [Example 412, 2-(2-Fluorophenyl)-N-{3-sulfamoyl-4-[4-(trifluoromethyl)-2H-1,2,3-triazol-2-yl]phenyl}acetamide] here?
A: 68%

Q: And the pIC50?
A: 5.80

Q: For `NS(=O)(=O)c1cc(NC(=O)Cc2ccccc2Cl)ccc1-n1ncc2cnccc21` [Example 501, 2-(2-Chlorophenyl)-N-[4-(1H-pyrazolo[4,3-c]pyridin-1-yl)-3-sulfamoylphenyl]acetamide], which Emax is on record?
A: 92%

Q: And the pIC50?
A: 8.52

Q: `NS(=O)(=O)c1cc(NC(=O)Cc2cccc(Cl)c2Cl)ccc1-c1cnn(C(F)F)c1` [Example 229, 2-(2,3-Dichlorophenyl)-N-{4-[1-(difluoromethyl)-1H-pyrazol-4-yl]-3-sulfamoylphenyl}-acetamide] was tested. Which Emax did it give?
A: 94%

Q: What about the pIC50 of the same compound?
A: 7.80

Q: `NS(=O)(=O)c1cc(NC(=O)Cc2ccccc2Cl)ccc1-c1cnn(CC2CC2)c1` [Example 267, 2-(2-Chlorophenyl)-N-{4-[1-(cyclopropylmethyl)-1H-pyrazol-4-yl]-3-sulfamoyl-phenyl}acetamide] was tested. Which Emax did it give?
A: 98%

Q: What about the pIC50 of the same compound?
A: 8.70

Q: `CC(C)(O)Cn1cc(-c2ccc(NC(=O)Cc3ccccc3Cl)cc2S(N)(=O)=O)cn1` [Example 370, 2-(2-Chlorophenyl)-N-{4-[1-(2-hydroxy-2-methylpropyl)-1H-pyrazol-4-yl]-3-sulfamoylphenyl}acetamide] was tested. Which Emax did it give?
A: 76%

Q: What about the pIC50 of the same compound?
A: 6.84

Q: How did the Emax turn out when `NS(=O)(=O)c1cc(NC(=O)Cc2ccccc2Cl)ccc1-n1cc(-c2ccccn2)cn1` [Example 402, 2-(2-Chlorophenyl)-N-{4-[4-(pyridin-2-yl)-1H-pyrazol-1-yl]-3-sulfamoylphenyl}acetamide] was run?
A: 85%

Q: And the pIC50?
A: 7.39

Q: Which Emax does the source give for `COc1cnn(-c2ccc(NC(=O)Cc3ccccc3Cl)cc2S(N)(=O)=O)c1` [Example 31, 2-(2-Chlorophenyl)-N-[4-(4-methoxy-1H-pyrazol-1-yl)-3-sulfamoylphenyl]acetamide] here?
A: 81%

Q: And the pIC50?
A: 6.95

Q: Which results are given for `NS(=O)(=O)c1cc(NC(=O)Cc2ccccc2Cl)ccc1-n1cc(NCC(F)F)cn1` [Example 258, 2-(2-Chlorophenyl)-N-(4-{4-[(2,2-difluoroethyl)amino]-1H-pyrazol-1-yl}-3-sulfamoyl-phenyl)acetamide]?
A: Emax: 97%; pIC50: 7.52

Q: For `NS(=O)(=O)c1cc(NC(=O)Cc2ccccc2F)ccc1-n1cnc(C(F)(F)F)n1` [Example 54, 2-(2-Fluorophenyl)-N-{3-sulfamoyl-4-[3-(trifluoromethyl)-1H-1,2,4-triazol-1-yl]phenyl}acetamide], which Emax is on record?
A: 75%

Q: What about the pIC50 of the same compound?
A: 6.25

Q: With `COc1cccc(Cl)c1CC(=O)Nc1ccc(-n2cc(C(F)(F)F)cn2)c(S(N)(=O)=O)c1` [Example 142, 2-(2-Chloro-6-methoxyphenyl)-N-{3-sulfamoyl-4-[4-(trifluoromethyl)-1H-pyrazol-1-yl]phenyl}acetamide] as the compound, how does the Emax read?
A: 78%

Q: And the pIC50?
A: 6.94

Q: `NS(=O)(=O)c1cc(NC(=O)Cc2c(Cl)cccc2C(F)(F)F)ccc1-n1cc(F)cn1` [Example 169, 2-[2-Chloro-6-(trifluoromethyl)phenyl]-N-[4-(4-fluoro-1H-pyrazol-1-yl)-3-sulfamoyl-phenyl]acetamide] was tested. Which Emax did it give?
A: 86%

Q: What about the pIC50 of the same compound?
A: 7.07

Q: Which results are given for `CC(C(=O)Nc1ccc(-n2cc(Cl)cn2)c(S(N)(=O)=O)c1)c1c(F)cccc1F` (stereo not shown) [Example 106, N-[4-(4-Chloro-1H-pyrazol-1-yl)-3-sulfamoylphenyl]-2-(2,6-difluorophenyl)-propanamide]?
A: Emax: 92%; pIC50: 5.33

Q: Which results are given for `NS(=O)(=O)c1cc(NC(=O)Cc2ccccc2Cl)ccc1-n1cnc(Br)c1` [Example 42, N-[4-(4-Bromo-1H-imidazol-1-yl)-3-sulfamoylphenyl]-2-(2-chlorophenyl)acetamide]?
A: Emax: 71%; pIC50: 7.62

Q: For `COc1ccc(CC(=O)Nc2ccc(-n3cc(C(F)(F)F)nn3)c(S(N)(=O)=O)c2)cc1` [Example 407, 2-(4-Methoxyphenyl)-N-{3-sulfamoyl-4-[4-(trifluoromethyl)-1H-1,2,3-triazol-1-yl]phenyl}acetamide], which Emax is on record?
A: 86%

Q: What about the pIC50 of the same compound?
A: 6.37

Q: `NS(=O)(=O)c1cc(NC(=O)Cc2c(Cl)cccc2Cl)ccc1-n1cc(F)cn1` [Example 179, 2-(2,6-Dichlorophenyl)-N-[4-(4-fluoro-1H-pyrazol-1-yl)-3-sulfamoylphenyl]acetamide] was tested. Which Emax did it give?
A: 89%

Q: And the pIC50?
A: 7.46

Q: What does the source list for `NS(=O)(=O)c1cc(NC(=O)Cc2ccccc2F)ccc1-n1cnc(Cl)n1` [Example 246, N-[4-(3-Chloro-1H-1,2,4-triazol-1-yl)-3-sulfamoylphenyl]-2-(2-fluorophenyl)acetamide]?
A: Emax: 100%; pIC50: 6.60

Q: `NS(=O)(=O)c1cc(NC(=O)Cc2ccccc2[N+](=O)[O-])ccc1-n1cc(Cl)cn1` [Example 78, N-[4-(4-Chloro-1H-pyrazol-1-yl)-3-sulfamoylphenyl]-2-(2-nitrophenyl)acetamide] was tested. Which Emax did it give?
A: 97%

Q: What about the pIC50 of the same compound?
A: 6.29

Q: What does the source list for `NS(=O)(=O)c1cc(NC(=O)Cc2ccccc2Cl)ccc1-c1nc(N2CCOCC2)cs1` [Example 549, 2-(2-Chlorophenyl)-N-{4-[4-(morpholin-4-yl)-1,3-thiazol-2-yl]-3-sulfamoylphenyl}acetamide]?
A: Emax: 85%; pIC50: 8.10

Q: `N#Cc1cncc(-c2ccc(NC(=O)Cc3ccccc3Cl)cc2S(N)(=O)=O)c1` [Example 282, 2-(2-Chlorophenyl)-N-[4-(5-cyanopyridin-3-yl)-3-sulfamoylphenyl]acetamide] was tested. Which Emax did it give?
A: 80%

Q: What about the pIC50 of the same compound?
A: 7.25

Q: Which results are given for `NS(=O)(=O)c1cc(NC(=O)Cc2ccccc2F)ccc1-n1cnc(C(F)F)n1` [Example 18, N-{4-[3-(Difluoromethyl)-1H-1,2,4-triazol-1-yl]-3-sulfamoylphenyl}-2-(2-fluoro-phenyl)acetamide]?
A: Emax: 66%; pIC50: 5.33

Q: Which results are given for `N#Cc1cnn(-c2ccc(NC(=O)Cc3cc(F)cc(F)c3)cc2S(N)(=O)=O)c1` [Example 190, N-[4-(4-Cyano-1H-pyrazol-1-yl)-3-sulfamoylphenyl]-2-(3,5-difluorophenyl)acetamide]?
A: Emax: 58%; pIC50: 6.27

Q: What does the source list for `COc1ccc(Cl)c(CC(=O)Nc2ccc(-n3cc(C(F)(F)F)cn3)c(S(N)(=O)=O)c2)c1` [Example 138, 2-(2-Chloro-5-methoxyphenyl)-N-{3-sulfamoyl-4-[4-(trifluoromethyl)-1H-pyrazol-1-yl]phenyl}acetamide]?
A: Emax: 100%; pIC50: 6.62

Q: For `N#Cc1cnn(-c2ccc(NC(=O)Cc3cccnc3Cl)cc2S(N)(=O)=O)c1` [Example 201, 2-(2-Chloropyridin-3-yl)-N-[4-(4-cyano-1H-pyrazol-1-yl)-3-sulfamoylphenyl]-acetamide], which Emax is on record?
A: 83%

Q: What about the pIC50 of the same compound?
A: 5.36

Q: Which results are given for `NS(=O)(=O)c1cc(NC(=O)Cc2ccc(Cl)cc2)ccc1-c1cncc(C(F)(F)F)c1` [Example 444, 2-(4-Chlorophenyl)-N-{3-sulfamoyl-4-[5-(trifluoromethyl)pyridin-3-yl]phenyl}acetamide]?
A: Emax: 77%; pIC50: 6.20

Q: How did the Emax turn out when `Cc1c(C#N)cnn1-c1ccc(NC(=O)Cc2ccccc2Cl)cc1S(N)(=O)=O` [Example 547, 2-(2-Chlorophenyl)-N-[4-(4-cyano-5-methyl-1H-pyrazol-1-yl)-3-sulfamoylphenyl]acetamide] was run?
A: 94%

Q: What about the pIC50 of the same compound?
A: 7.22

Q: `NS(=O)(=O)c1cc(NC(=O)Cc2ccccc2Cl)ccc1-c1cnc(NCC(F)(F)F)nc1` [Example 315, 2-(2-Chlorophenyl)-N-(3-sulfamoyl-4-{2-[(2,2,2-trifluoroethyl)amino]pyrimidin-5-yl}phenyl)acetamide] was tested. Which Emax did it give?
A: 81%

Q: And the pIC50?
A: 7.47

Q: `Cc1cc(-c2ccc(NC(=O)Cc3ccccc3Cl)cc2S(N)(=O)=O)cnc1Cl` [Example 298, N-[4-(6-Chloro-5-methylpyridin-3-yl)-3-sulfamoylphenyl]-2-(2-chlorophenyl)acetamide] was tested. Which Emax did it give?
A: 104%

Q: What about the pIC50 of the same compound?
A: 6.97
